Laboratory results published in paper PMC4860631, “Pharmacokinetics and tolerability of NSC23925b, a novel P-glycoprotein inhibitor: preclinical study in mice and rats” (Scientific Reports, 2016).

Columns and labels:
Type in all cases: in vitro ADME
[1] = target: T1, CYP1A2 (Homo sapiens, UniProt P05177); assay: HLM-LC-MS CYP450 inhibition assay, CYP1A2
T1 sequence (P05177 1-516): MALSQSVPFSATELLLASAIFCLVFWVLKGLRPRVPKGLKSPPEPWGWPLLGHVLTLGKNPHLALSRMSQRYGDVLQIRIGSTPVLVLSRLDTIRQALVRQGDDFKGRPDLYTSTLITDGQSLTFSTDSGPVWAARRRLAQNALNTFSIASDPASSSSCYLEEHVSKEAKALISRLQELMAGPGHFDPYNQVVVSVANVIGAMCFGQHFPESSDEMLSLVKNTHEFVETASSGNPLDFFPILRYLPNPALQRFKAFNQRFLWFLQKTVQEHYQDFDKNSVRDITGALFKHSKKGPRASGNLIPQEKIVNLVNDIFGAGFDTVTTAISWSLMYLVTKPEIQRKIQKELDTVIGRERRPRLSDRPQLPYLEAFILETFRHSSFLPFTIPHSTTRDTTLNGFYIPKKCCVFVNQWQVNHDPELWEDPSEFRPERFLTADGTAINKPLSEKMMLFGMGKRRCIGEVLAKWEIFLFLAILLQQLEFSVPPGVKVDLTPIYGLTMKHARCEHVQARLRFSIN

[2] = target: T2, CYP2B6 (Homo sapiens, UniProt P20813); assay: HLM-LC-MS CYP450 inhibition assay, CYP2B6
T2 construct: from tissue; host or cells: human liver microsomes
T2 sequence (P20813 1-491): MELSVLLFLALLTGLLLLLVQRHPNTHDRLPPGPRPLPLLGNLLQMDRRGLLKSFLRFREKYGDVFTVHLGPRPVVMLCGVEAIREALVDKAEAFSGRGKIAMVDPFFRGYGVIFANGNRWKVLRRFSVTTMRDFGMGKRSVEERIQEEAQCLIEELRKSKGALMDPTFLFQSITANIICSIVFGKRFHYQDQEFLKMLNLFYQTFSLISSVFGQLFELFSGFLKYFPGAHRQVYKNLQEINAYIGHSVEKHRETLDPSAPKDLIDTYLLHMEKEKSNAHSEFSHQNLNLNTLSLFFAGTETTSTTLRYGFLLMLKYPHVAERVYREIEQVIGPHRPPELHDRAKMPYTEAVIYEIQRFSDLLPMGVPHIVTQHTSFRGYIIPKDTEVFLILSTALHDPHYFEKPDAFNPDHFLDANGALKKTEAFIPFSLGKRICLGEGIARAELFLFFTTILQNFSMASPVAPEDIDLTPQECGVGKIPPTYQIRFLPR
Method: Compounds were tested in triplicate.

[3] = target: T3, CYP2C8 (Homo sapiens, UniProt P10632); assay: HLM-LC-MS CYP450 inhibition assay, CYP2C8
T3 construct: from tissue; host or cells: human liver microsomes
T3 sequence (P10632 1-490): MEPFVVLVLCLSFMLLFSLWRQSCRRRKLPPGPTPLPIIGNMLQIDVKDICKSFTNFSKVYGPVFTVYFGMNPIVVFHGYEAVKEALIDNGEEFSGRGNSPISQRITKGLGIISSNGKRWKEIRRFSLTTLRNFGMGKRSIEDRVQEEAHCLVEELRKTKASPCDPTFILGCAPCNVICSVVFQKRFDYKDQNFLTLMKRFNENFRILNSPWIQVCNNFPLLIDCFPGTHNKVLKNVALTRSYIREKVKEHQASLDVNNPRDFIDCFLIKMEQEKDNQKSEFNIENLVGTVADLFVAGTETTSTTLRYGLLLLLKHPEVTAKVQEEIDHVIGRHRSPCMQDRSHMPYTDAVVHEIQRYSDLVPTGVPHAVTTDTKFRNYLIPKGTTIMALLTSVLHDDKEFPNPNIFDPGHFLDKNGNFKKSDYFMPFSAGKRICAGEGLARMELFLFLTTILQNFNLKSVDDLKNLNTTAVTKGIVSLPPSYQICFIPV
Method: A sigmoid-shaped curve (Log(inhibitor) vs. Response-Variable slope) was fitted to the data and the IC50 was calculated using GraphPad Prism software.
This assay used a cocktail of drug-probe substrates that are specific to each isozyme with HLM and LC-MS detection[33][34]. Each test article and reference inhibitor was dissolved in 40% DMSO and 60% acetonitrile (ACN) mixture. […] Substrates were then added to their respective well containing the compound/HLM solution to start the reaction. […] The solution was centrifuged at 4 °C for 30 min at 3,700 rpm and the supernatant was transferred for LC-MS analysis. The concentrations of the metabolites were determined from standard curves using commercially available metabolite standards. Compounds were tested in triplicate. The half maximal inhibitory concentration (IC50) values were determined by plotting the metabolite formation over the logarithm of the compound concentration using Prism 5.0 software (GraphPad Software Inc., San Diego, CA).

COc1ccc(-c2cc(C(O)C3CCCCN3)c3ccccc3n2)cc1 (stereo not drawn) [NSC23925b, (2-(4-methoxyphenyl)-4-quinolinyl)(2-piperidinyl)methanol]
CYP inhibitor class [1]: weak (IC50 values of >10 μM) | IC50 ([1]; substrate phenacetin 30 μM, O-deethylation, read-out: Compound IC50): > 10 µM | CYP inhibitor class ([2]; bupropion): moderate (1–10 μM) | IC50 ([2]; substrate bupropion 70 μM, hydroxylation, read-out: Compound IC50): 8.59 µM | CYP inhibitor class [3]: weak (IC50 values of >10 μM) | IC50 ([3]; substrate paclitaxel 10 μM, 6α-hydroxylation, read-out: Compound IC50): > 10 µM
